For 40 molecules, EC50 and Emax results are on record in patent US8802700B2 (Vertex Pharmaceuticals Incorporated, priority 2010, dated 2014).

Each structure is given as a SMILES string. pEC50: −log10 of the molar value.

For one assay, the target named is T1, ΔF508-CFTR (Homo sapiens, UniProt P13569, DEL508-508).
T1 construct: expressed in transfected cells
T1 sequence (P13569 with tags, fused parts or gaps DEL508-508): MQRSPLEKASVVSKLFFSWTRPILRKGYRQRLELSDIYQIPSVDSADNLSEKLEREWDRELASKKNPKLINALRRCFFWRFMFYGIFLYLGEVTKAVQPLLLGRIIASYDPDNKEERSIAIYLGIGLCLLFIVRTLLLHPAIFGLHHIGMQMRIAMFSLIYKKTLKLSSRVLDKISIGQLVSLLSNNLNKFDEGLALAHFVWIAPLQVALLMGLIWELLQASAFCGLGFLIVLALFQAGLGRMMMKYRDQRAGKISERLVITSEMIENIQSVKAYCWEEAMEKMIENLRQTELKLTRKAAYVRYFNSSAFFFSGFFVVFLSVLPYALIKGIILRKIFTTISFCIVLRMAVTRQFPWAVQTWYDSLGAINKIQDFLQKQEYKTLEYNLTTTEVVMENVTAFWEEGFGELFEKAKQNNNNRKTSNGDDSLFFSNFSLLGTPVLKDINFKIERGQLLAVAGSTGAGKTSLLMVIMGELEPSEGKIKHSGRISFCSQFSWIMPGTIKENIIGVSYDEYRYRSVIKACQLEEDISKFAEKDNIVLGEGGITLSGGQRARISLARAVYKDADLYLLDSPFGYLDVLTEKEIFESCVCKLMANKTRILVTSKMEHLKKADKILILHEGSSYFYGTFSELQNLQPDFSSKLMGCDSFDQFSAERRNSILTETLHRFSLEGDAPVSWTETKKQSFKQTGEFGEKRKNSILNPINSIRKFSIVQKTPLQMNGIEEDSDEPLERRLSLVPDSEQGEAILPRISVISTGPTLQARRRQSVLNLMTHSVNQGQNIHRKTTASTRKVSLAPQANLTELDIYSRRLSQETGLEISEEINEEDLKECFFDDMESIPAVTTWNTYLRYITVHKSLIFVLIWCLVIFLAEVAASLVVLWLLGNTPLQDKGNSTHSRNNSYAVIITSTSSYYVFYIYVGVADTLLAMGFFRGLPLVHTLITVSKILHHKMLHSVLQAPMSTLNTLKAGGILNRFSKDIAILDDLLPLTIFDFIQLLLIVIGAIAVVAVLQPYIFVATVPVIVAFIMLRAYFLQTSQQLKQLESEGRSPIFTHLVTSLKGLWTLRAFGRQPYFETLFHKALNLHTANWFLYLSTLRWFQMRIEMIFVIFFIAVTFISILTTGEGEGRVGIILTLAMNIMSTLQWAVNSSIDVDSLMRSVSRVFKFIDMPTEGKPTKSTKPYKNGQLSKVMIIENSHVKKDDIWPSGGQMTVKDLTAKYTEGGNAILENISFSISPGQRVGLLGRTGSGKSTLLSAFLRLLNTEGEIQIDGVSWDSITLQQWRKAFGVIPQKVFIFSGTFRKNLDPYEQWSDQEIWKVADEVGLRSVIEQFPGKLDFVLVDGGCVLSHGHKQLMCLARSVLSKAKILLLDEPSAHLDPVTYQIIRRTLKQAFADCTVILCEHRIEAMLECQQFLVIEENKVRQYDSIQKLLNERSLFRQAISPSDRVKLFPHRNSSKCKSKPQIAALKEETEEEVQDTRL
Briefly: Membrane potential optical assay (FRET voltage-sensor dyes, VIPR), identification of potentiator compounds. Particulars: Table 3; assay not given. The assay is classed as cell-based. Summed up: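 NIH3T3 mouse fibroblasts stably expressing ΔF508-CFTR, cultured 24 h at 27 °C, were loaded with FRET voltage dyes CC2-DMPE and DiSBAC2(3). Double-addition format: first addition of Cl⁻-free (gluconate) medium with or without compound; membrane-potential change read as fluorescence on VIPR II.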
As to `O=C(Nc1ccccc1-c1cccc(F)c1)c1c[nH]c2ccccc2c1=O` [Compound 277, N-[2-(3-fluorophenyl)phenyl]-4-oxo-1H-quinoline-3-carboxamide], the pEC50 (in general, the negative decadic logarithm of the EC50, by convention in mol/L) was above 5.00.

For the molecule `COC(=O)c1cccc(-c2ccccc2NC(=O)c2c[nH]c3ccccc3c2=O)c1` [Compound 68, 3-[2-[(4-oxo-1H-quinolin-3-yl)carbonylamino]phenyl]benzoic acid methyl ester], the pEC50 was above 5.00.

Take `CCOc1ccccc1-c1ccccc1NC(=O)c1c[nH]c2ccccc2c1=O` [Compound 344, N-[2-(2-ethoxyphenyl)phenyl]-4-oxo-1H-quinoline-3-carboxamide]: the pEC50 was above 5.00.

Still in this assay, the particulars now being: Table 3; assay not given; read-out: % Activity (% Efficacy, relative efficacy).
Turning to `O=C(Nc1ccc(C2CCCCC2)c(O)c1)c1c[nH]c2ccc(F)cc2c1=O` [Compound 651, N-(4-cyclohexyl-3-hydroxy-phenyl)-6-fluoro-4-oxo-1H-quinoline-3-carboxamide], the Emax lay in the range of 25 to 100%.

With `O=C(Nc1ccc2nc[nH]c2c1)c1c[nH]c2ccccc2c1=O` [Compound 414, N-(3H-benzoimidazol-5-yl)-4-oxo-1H-quinoline-3-carboxamide], the Emax was below 25%.

Take `O=C(Nc1ccc2[nH]ccc2c1)c1c[nH]c2ccccc2c1=O` [Compound 294, N-(1H-indol-5-yl)-4-oxo-1H-quinoline-3-carboxamide]: the Emax lay in the range of 25 to 100%.

Turning to `O=C(Nc1ccccc1-c1cccc(F)c1)c1c[nH]c2ccccc2c1=O` [Compound 277, N-[2-(3-fluorophenyl)phenyl]-4-oxo-1H-quinoline-3-carboxamide], the Emax is above 100%.

`CC(C)(C)c1ccc(NC(=O)c2c[nH]c3ccccc3c2=O)cc1N` [Compound 271, N-(3-amino-4-tert-butyl-phenyl)-4-oxo-1H-quinoline-3-carboxamide]: the Emax fell in the range of 25 to 100%.

In the case of `CC(C)c1ccc(NC(=O)c2c[nH]c3ccc(Cl)cc3c2=O)c(C(F)(F)F)c1` [Compound 657, 6-chloro-N-[4-isopropyl-2-(trifluoromethyl)phenyl]-4-oxo-1H-quinoline-3-carboxamide], the Emax lay within 25 to 100%.

As for `O=C(Nc1ccc2cc(C(F)(F)F)[nH]c2c1)c1c[nH]c2ccccc2c1=O` [Compound 537, 4-oxo-N-[2-(trifluoromethyl)-1H-indol-6-yl]-1H-quinoline-3-carboxamide], the Emax was in the range of 25 to 100%.

Take `CN(C(=O)c1c[nH]c2ccccc2c1=O)c1cc(O)c(C(C)(C)C)cc1C(C)(C)C` [Compound 337, N-(5-hydroxy-2,4-ditert-butyl-phenyl)-N-methyl-4-oxo-1H-quinoline-3-carboxamide]: the Emax fell in the range of 25 to 100%.

`CC(C)(C)c1cc2cc[nH]c2cc1NC(=O)c1c[nH]c2ccc(O)cc2c1=O` [Compound 679, 6-hydroxy-4-oxo-N-(5-tert-butyl-1H-indol-6-yl)-1H-quinoline-3-carboxamide]: the Emax is 25 to 100%.

As for `O=C(Nc1ccccc1-c1ccc(CO)cc1)c1c[nH]c2ccccc2c1=O` [Compound 302, N-[2-[4-(hydroxymethyl)phenyl]phenyl]-4-oxo-1H-quinoline-3-carboxamide], the Emax was 25 to 100%.

Turning to `O=C(Nc1cnccn1)c1c[nH]c2ccccc2c1=O` [Compound 219, 4-oxo-N-pyrazin-2-yl-1H-quinoline-3-carboxamide], the Emax is below 25%.

As to `CCc1c[nH]c2cc(NC(=O)c3c[nH]c4ccccc4c3=O)ccc12` [Compound 383, N-(3-ethyl-1H-indol-6-yl)-4-oxo-1H-quinoline-3-carboxamide], the Emax lay in the range of 25 to 100%.

Turning to `O=C(c1ccccc1)c1ccccc1NC(=O)c1c[nH]c2ccccc2c1=O` [Compound 252, N-(2-benzoylphenyl)-4-oxo-1H-quinoline-3-carboxamide], the Emax lay in the range of 25 to 100%.

As for `Cc1ccc2c(c1)c(=O)c(C(=O)Nc1ccccc1)cn2C` [Compound 394, 1,6-dimethyl-4-oxo-N-phenyl-1H-quinoline-3-carboxamide], the Emax was below 25%.

`Cc1cccc(NC(=O)c2c[nH]c3ccccc3c2=O)c1` [Compound 449, N-(m-tolyl)-4-oxo-1H-quinoline-3-carboxamide]: the Emax was 25 to 100%.

Consider `Cc1cccc2c(=O)c(C(=O)Nc3ccc(C(C)C)cc3C(F)(F)F)c[nH]c12` [Compound 637, N-[4-isopropyl-2-(trifluoromethyl)phenyl]-8-methyl-4-oxo-1H-quinoline-3-carboxamide], for which the Emax was below 25%.

Take `Cc1cc(N2CCCC2)ccc1NC(=O)c1c[nH]c2ccccc2c1=O` [Compound 615, N-(2-methyl-4-pyrrolidin-1-yl-phenyl)-4-oxo-1H-quinoline-3-carboxamide]: the Emax was above 100%.

For `COc1cc2[nH]cc(C(=O)Nc3cc(O)c(C(C)(C)C)cc3C(C)(C)C)c(=O)c2cc1F` [Compound 617, 6-fluoro-N-(5-hydroxy-2,4-ditert-butyl-phenyl)-7-methoxy-4-oxo-1H-quinoline-3-carboxamide], the Emax was above 100%.

As to `O=C(Nc1ccc(OC(F)(F)F)cc1Cl)c1c[nH]c2ccccc2c1=O` [Compound 628, N-[2-chloro-4-(trifluoromethoxy)phenyl]-4-oxo-1H-quinoline-3-carboxamide], the Emax is 25 to 100%.

With `O=C(Nc1ccccc1-c1ccc(F)c(F)c1)c1c[nH]c2ccccc2c1=O` [Compound 76, N-[2-(3,4-difluorophenyl)phenyl]-4-oxo-1H-quinoline-3-carboxamide], the Emax is 25 to 100%.

As for `N#Cc1cc(Cl)cc(Cl)c1NC(=O)c1c[nH]c2ccccc2c1=O` [Compound 369, N-(2,4-dichloro-6-cyano-phenyl)-4-oxo-1H-quinoline-3-carboxamide], the Emax was below 25%.

For `CCCc1ccc(NC(=O)c2c[nH]c3ccccc3c2=O)cc1NC(=O)OCC` [Compound 382, [5-[(4-oxo-1H-quinolin-3-yl)carbonylamino]-2-propyl-phenyl]aminoformic acid ethyl ester], the Emax lay within 25 to 100%.

On to `COC(=O)Oc1c(NC(=O)c2c[nH]c3ccccc3c2=O)cc(F)cc1C(C)(C)C` [Compound 288, N-(5-fluoro-2-methoxycarbonyloxy-3-tert-butyl-phenyl)-4-oxo-1H-quinoline-3-carboxamide], for which the Emax was in the range of 25 to 100%.

For `COc1ccc(Cl)cc1-c1ccccc1NC(=O)c1c[nH]c2ccccc2c1=O` [Compound 202, N-[2-(5-chloro-2-methoxy-phenyl)phenyl]-4-oxo-1H-quinoline-3-carboxamide], the Emax fell in the range of 25 to 100%.

With `O=C(Nc1cccnc1Oc1ccc(F)cc1)c1c[nH]c2ccccc2c1=O` [Compound 147, N-[2-(4-fluorophenoxy)-3-pyridyl]-4-oxo-1H-quinoline-3-carboxamide], the Emax lay within 25 to 100%.

With `COC(=O)c1cccc(-c2ccccc2NC(=O)c2c[nH]c3ccccc3c2=O)c1` [Compound 68, 3-[2-[(4-oxo-1H-quinolin-3-yl)carbonylamino]phenyl]benzoic acid methyl ester], the Emax was in the range of 25 to 100%.

On to `COC(=O)Nc1cc(NC(=O)c2c[nH]c3ccccc3c2=O)ccc1C(C)(C)C` [Compound 14, [5-[(4-oxo-1H-quinolin-3-yl)carbonylamino]-2-tert-butyl-phenyl]aminoformic acid methyl ester], for which the Emax was 25 to 100%.

Regarding `COC(=O)c1cc(NC(=O)c2c[nH]c3ccccc3c2=O)ccc1C(C)(C)C` [Compound 444, 5-[(4-oxo-1H-quinolin-3-yl)carbonylamino]-2-tert-butyl-benzoic acid methyl ester], the Emax was 25 to 100%.

On to `CC(C)c1ccc(NC(=O)c2c[nH]c3ccc(F)cc3c2=O)c(C(F)(F)F)c1` [Compound 557, 6-fluoro-N-[4-isopropyl-2-(trifluoromethyl)phenyl]-4-oxo-1H-quinoline-3-carboxamide], for which the Emax was 25 to 100%.

Regarding `CC(C)(C)OC(=O)NCCc1c[nH]c2cc(NC(=O)c3c[nH]c4ccccc4c3=O)ccc12` [Compound 352, 2-[6-[(4-oxo-1H-quinolin-3-yl)carbonylamino]-1H-indol-3-yl]ethylaminoformic acid tert-butyl ester], the Emax lay in the range of 25 to 100%.

With `CNc1cccc2[nH]cc(C(=O)Nc3cc(O)c(C(C)(C)C)cc3C(C)(C)C)c(=O)c12` [Compound 542, N-(5-hydroxy-2,4-ditert-butyl-phenyl)-5-methylamino-4-oxo-1H-quinoline-3-carboxamide], the Emax was above 100%.

As to `Cc1ccc2c(=O)c(C(=O)Nc3cc(O)c(C4(C)CCCCC4)cc3F)c[nH]c2c1` [Compound 499, N-[2-fluoro-5-hydroxy-4-(1-methylcyclohexyl)-phenyl]-7-methyl-4-oxo-1H-quinoline-3-carboxamide], the Emax was 25 to 100%.

`O=C(Nc1ccc(OCc2ccccc2)cc1)c1c[nH]c2ccccc2c1=O` [Compound 189, N-(4-benzyloxyphenyl)-4-oxo-1H-quinoline-3-carboxamide]: the Emax is 25 to 100%.

Regarding `CC(C)Cc1ccc(-c2ccccc2NC(=O)c2c[nH]c3ccccc3c2=O)cc1` [Compound 391, N-[2-(4-isobutylphenyl)phenyl]-4-oxo-1H-quinoline-3-carboxamide], the Emax lay within 25 to 100%.

For `CCOc1ccccc1NC(=O)c1c[nH]c2ccccc2c1=O` [Compound 380, N-(2-ethoxyphenyl)-4-oxo-1H-quinoline-3-carboxamide], the Emax lay in the range of 25 to 100%.

Take `O=C(Nc1ccc2cc(C(F)(F)F)[nH]c2c1)c1c[nH]c2cccc(O)c2c1=O` [Compound 693, 5-hydroxy-4-oxo-N-[2-(trifluoromethyl)-1H-indol-6-yl]-1H-quinoline-3-carboxamide]: the Emax fell in the range of 25 to 100%.

For `O=C(Nc1cc(OCc2ccccc2)c(C2CCCCC2)cc1C(F)(F)F)c1c[nH]c2ccccc2c1=O` [Compound 654, N-[5-benzyloxy-4-cyclohexyl-2-(trifluoromethyl)phenyl]-4-oxo-1H-quinoline-3-carboxamide], the Emax was 25 to 100%.

As for `CCOc1ccccc1-c1ccccc1NC(=O)c1c[nH]c2ccccc2c1=O` [Compound 344, N-[2-(2-ethoxyphenyl)phenyl]-4-oxo-1H-quinoline-3-carboxamide], the Emax is 25 to 100%.

Consider `O=C(Nc1ccc(N2CCC[C@@H]2CO)cc1C(F)(F)F)c1c[nH]c2ccccc2c1=O` [Compound 670, (R)-N-(4-(2-(hydroxymethyl)pyrrolidin-1-yl)-2-(trifluoromethyl)phenyl)-4-oxo-1,4-dihydroquinoline-3-carboxamide], for which the Emax is 25 to 100%.

Regarding `O=C(Nc1cccc2ncccc12)c1c[nH]c2ccccc2c1=O` [Compound 191, 4-oxo-N-(5-quinolyl)-1H-quinoline-3-carboxamide], the Emax was below 25%.
